According to patent US12559474B2, “Triazine derivatives having virus replication inhibitory activity and pharmaceutical composition comprising the same” (priority 2021, dated 2026):
Like-named read-outs stand apart in the source and are kept apart here.

What was measured:
[1] = system: SARS-CoV-2; assay: microbe, parasite or virus in culture; assay type: cell-based; conditions: Severe acute respiratory syndrome coronavirus 2, VeroE6/TMPRSS2, 72 h, 50% SARS-CoV-2 infected cell death inhibitory concentration, VeroE6/TMPRSS2 cells, 3 days culture
[2] = molecular target: SARS-CoV-2 3CL protease (Severe acute respiratory syndrome coronavirus 2, UniProt P0DTD1); assay: biochemical; conditions: 50% SARS-CoV-2 3CL protease inhibitory concentration, read-out: IC50

| Structure (SMILES) | EC50 ([1]; class symbols) | IC50 ([2]; given as class symbols) | EC50 ([1]; CellTiter-Glo 2.0) | IC50 ([2]; RapidFire MS) |
| --- | --- | --- | --- | --- |
| Cc1cncc(-n2c(=O)nc(Nc3cc4cn(C)nc4cc3Cl)n(Cc3cc(C#N)c(F)cc3CCC(C)C)c2=O)c1 [II-0092] | < 1000 nM | < 100 nM | – | – |
| Cn1cc2cc(Nc3nc(=O)n(Cc4cc(Cl)ccn4)c(=O)n3Cc3cc(F)c(F)cc3F)c(Cl)cc2n1 [II-0255] | – | – | 1520 nM | 100 nM |
| Cc1cncc(-n2c(=O)nc(Nc3ccc4nn(C)cc4c3)n(Cc3ccc(F)c(C#N)c3)c2=O)c1 [II-0173] | – | – | 272 nM | 15 nM |
| Cc1cncc(-n2c(=O)nc(Nc3cc4cn(C5COC5)nc4cc3Cl)n(Cc3ccc(F)c(C#N)c3)c2=O)c1 [II-0158] | 1000 to 10000 nM | < 100 nM | – | – |
| CNc1nc2cc(Cl)c(Nc3nc(=O)n(-c4cncc(C)c4)c(=O)n3Cc3cc(C#N)c(F)cn3)cc2s1 [II-0534] | 1000 to 10000 nM | < 100 nM | – | – |
| Cc1ccc(C#N)cc1Cn1c(Nc2cc3cn(C)nc3cc2Cl)nc(=O)n(-c2cncc(Cl)c2)c1=O [II-0543] | – | – | 87 nM | 2.8 nM |
| Cc1cncc(-n2c(=O)nc(Nc3cc4cn(C)nc4cc3Cl)n(Cc3ccc(F)c(F)c3F)c2=O)c1 [II-0175] | < 1000 nM | < 100 nM | – | – |
| Cc1cncc(-n2c(=O)nc(Nc3cc4cn(CC(F)F)nc4cc3F)n(Cc3ccc(F)c(C#N)c3)c2=O)c1 [II-0439] | < 1000 nM | < 100 nM | – | – |
| COc1ccc(Nc2nc(=O)n(Cc3ncc(C)s3)c(=O)n2Cc2cc(F)c(F)c(F)c2)cc1 [Compound I-0339] | 1000 to 10000 nM | 100 to 1000 nM | 8000 nM | 610 nM |
| CNc1nc2cc(Cl)c(Nc3nc(=O)n(Cc4ncn(C)n4)c(=O)n3Cc3cc(F)c(F)cc3F)cc2o1 [II-0517] | 1000 to 10000 nM | < 100 nM | – | – |
| Cn1cnc(Cn2c(=O)nc(Nc3cc4cn(CC5(NC(=O)OC(C)(C)C)CC5)nc4cc3Cl)n(Cc3cc(Cl)c(F)cc3F)c2=O)n1 [II-0562] | 1000 to 10000 nM | < 100 nM | – | – |
| Cc1cncc(-n2c(=O)nc(Nc3ccc4nc(C)sc4c3)n(Cc3ccc(F)c(C#N)c3)c2=O)c1 [II-0197] | < 1000 nM | < 100 nM | – | – |
| CNc1nc2cc(F)c(Nc3nc(=O)n(-c4cncc(Cl)c4)c(=O)n3Cc3ccc(F)c(C#N)c3)cc2s1 [II-0263] | 1000 to 10000 nM | < 100 nM | – | – |
| Cc1cncc(-n2c(=O)nc(Nc3cc4cn(C)nc4cc3F)n(Cc3cc(F)c(F)cc3F)c2=O)c1 [II-0528] | < 1000 nM | < 100 nM | – | – |
| COc1ccc(Nc2nc(=O)n(Cc3ncn(C)n3)c(=O)n2Cc2cc(F)c(F)c(F)c2)c(Cl)c1 [Compound I-0346] | < 1000 nM | < 100 nM | – | – |
| Cc1c2cc(Nc3nc(=O)n(-c4cncc(Cl)c4)c(=O)n3Cc3ccc(F)c(C#N)c3)ccc2nn1C [II-0267] | 1000 to 10000 nM | < 100 nM | – | – |
| Cc1cc2nn(C)cc2cc1Nc1nc(=O)n(-c2cncc3ccccc23)c(=O)n1Cc1ccc(F)c(C#N)c1 [Compound I-0431] | < 1000 nM | < 100 nM | – | – |
| COc1ccc(Nc2nc(=O)n(Cc3ccc[nH]c3=O)c(=O)n2Cc2cc(F)c(F)c(F)c2)c(C)c1 [Compound I-0129] | 1000 to 10000 nM | < 100 nM | – | – |
| Cn1cc2cc(Nc3nc(=O)n(-c4cncc5ccccc45)c(=O)n3Cc3ccc(F)c(C#N)c3)c(Cl)cc2n1 [Compound I-0379] | < 1000 nM | < 100 nM | – | – |
| Cn1cc2cc(Nc3nc(=O)n(-c4cncc(C#N)c4)c(=O)n3Cc3ccc(F)c(C#N)c3)ccc2n1 [II-0389] | – | – | 4400 nM | 45 nM |
| O=c1[nH]cccc1Cn1c(=O)nc(Nc2cc3cn(CCN4CCOCC4)nc3cc2Cl)n(Cc2cc(F)c(F)c(F)c2)c1=O [Compound I-0249] | 1000 to 10000 nM | < 100 nM | – | – |
| Cn1cnc(Cn2c(=O)nc(Nc3cc4cn(CCO)nc4cc3Cl)n(Cc3cc(F)c(F)c(Cl)c3)c2=O)n1 [II-0307] | 1000 to 10000 nM | < 100 nM | – | – |
| Cc1cncc(-n2c(=O)nc(Nc3cc4cn(CC(F)F)nc4cc3F)n(Cc3cc(F)c(F)cc3F)c2=O)c1 [II-0355] | < 1000 nM | < 100 nM | – | – |
| COc1ccc(Nc2nc(=O)n(-c3cncc(C)c3)c(=O)n2Cc2ccc(F)c(C#N)c2)cc1 [II-0182] | < 1000 nM | < 100 nM | – | – |
| Cc1cncc(-n2c(=O)nc(Nc3cc4cn(C(F)F)nc4cc3Cl)n(Cc3ccc(F)c(C#N)c3)c2=O)c1 [Compound I-0430] | < 1000 nM | < 100 nM | – | – |
| O=c1[nH]cccc1Cn1c(=O)nc(Nc2ccc3c(c2)CCO3)n(Cc2cc(F)c(F)c(F)c2)c1=O [Compound I-0025] | 1000 to 10000 nM | < 100 nM | – | – |
| Cc1cncc(-n2c(=O)nc(Nc3ccc4nn(CC(F)(F)F)cc4c3)n(Cc3cc(C#N)ccc3F)c2=O)c1 [II-0312] | < 1000 nM | < 100 nM | – | – |
| COc1c2cc(Nc3nc(=O)n(Cc4ncn(C)n4)c(=O)n3Cc3cc(F)c(F)cc3F)c(Cl)cc2nn1C [II-0454] | 1000 to 10000 nM | < 100 nM | – | – |
